Source: patent publication US12128049B2, “Dosage regimen of paliperidone palmitate extended-release injectable suspension” (Luye Innomind Pharma Shijiazhuang Co., Ltd., priority 2017, dated 2024)
Values joined by “and” are separate entries in the source; they are usually repeats but may differ in a detail not shown here. Identical values can stand only once.

Legend:
[1] = PK in beagle dogs under RLD regimen: IM 4.6 mg/kg day 1, 3.1 mg/kg day 8, 2.3 mg/kg day 36 (Groups I, IV); assay type: in vivo
Procedure: (§1) 20 healthy male beagle dogs (average weight about 11 kg) were randomly divided into 5 groups (Groups I-V) with 4 dogs in each group. Each animal was assigned its own number (#1-#20).
(§2) Group I animals (#1-#4) and Group IV animals (#13-#16) were tested under RLD regimen. Group II animals (#5-#8) were tested under Regimen A. Group III animals (#9-#12) and Group V animals (#17-#20) were tested under Regimen B. Table 5 summarizes the respective human dosages (mg of paliperidone) and the equivalent animal dosages (converted to mg/kg) and the dosing intervals under each dosing regimen.
(§3) The animals in each group received intramuscular injections according to the dosing regimen assigned to the group. Blood samples (1 ml/collection) were collected from the forelimb vein of each beagle immediate before administration (at 0 h), and thereafter at time intervals of 6 h (day 1), 24 hr (day 2), day 3, day 5, day 8 (prior to dosing for groups receiving RLD regimen), day 9, day 11, day 13, day 15 (prior to dosing for groups receiving Regimen A), day 17, day 19, day 22, day 24, day 26, day 29 (prior to dosing for groups receiving Regimen A), day 30, day 32, day 34, day 36 (prior to dosing for groups receiving RLD and Regimen A), day 37, day 39, day 42, day 45, day 47, day 50, day 53, day 57, day 64, day 71, day 78, and day 85. The blood samples were placed in heparinized centrifuge tubes and centrifuged for 10 min (3500 rpm). The plasma was separated, collected and stored under −80° C.

[2] = PK in beagle dogs under Regimen A: IM 6.2 mg/kg day 1, 1.5 mg/kg day 15, 2.3 mg/kg day 36 (Group II); assay type: in vivo
Procedure: as §1, §2, §3

[3] = PK in beagle dogs under Regimen B: IM 6.9 mg/kg day 1, 3.1 mg/kg day 29 (Groups III, V); assay type: in vivo
Procedure: as §1, §2, §3

[4] = over a broad pH range; cited from earlier work
[5] = Regimen B, Group V vs Group IV (FIG. 10B)

SMILES: CCCCCCCCCCCCCCCC(=O)OC1CCCn2c1nc(C)c(CCN1CCC(c3noc4cc(F)ccc34)CC1)c2=O (racemic) [paliperidone palmitate, (9RS)-3-[2-[4-(6-Fluoro-1,2-benzisoxazol-3-yl)piperidin-1-yl]ethyl]-2-methyl-4-oxo-6,7,8,9-tetrahydro-4H-pyrido[1,2-a]pyrimadin-9-yl hexadecanoate]
- AUC(0-t) ([1]; Group I, individual dogs): 3632.18 µg·days/L and 2010.03 µg·days/L and 3477.47 µg·days/L and 4210.47 µg·days/L
- AUC(0-∞) ([1]; Group I, individual dogs): 3682.95 µg·days/L and 2012.83 µg·days/L and 4010.14 µg·days/L and 4214.96 µg·days/L
- AUC(0-t) ([1]; Group I, mean): 3332.54 µg·days/L
- AUC(0-∞) ([1]; Group I, mean): 3480.22 µg·days/L
- AUC(0-t) ([1]; Group IV, individual dogs): 2528.69 µg·days/L and 3241.40 µg·days/L and 3191.02 µg·days/L and 1190.27 µg·days/L
- AUC(0-∞) ([1]; Group IV, individual dogs): 2546.38 µg·days/L and 3312.15 µg·days/L and 3194.15 µg·days/L and 1311.82 µg·days/L
- AUC(0-t) ([1]; Group IV, mean): 2537.85 µg·days/L
- AUC(0-∞) ([1]; Group IV, mean): 2591.12 µg·days/L
- AUC(0-t) ([2]; individual dogs): 4069.12 µg·days/L and 3146.75 µg·days/L and 3336.44 µg·days/L and 2282.89 µg·days/L
- AUC(0-∞) ([2]; individual dogs): 4285.47 µg·days/L and 3544.02 µg·days/L and 3446.66 µg·days/L and 2612.80 µg·days/L
- AUC(0-t) ([2]; mean): 3208.80 µg·days/L
- AUC(0-∞) ([2]; mean): 3472.24 µg·days/L
- overall drug exposures (AUC) ([3]; RLD Regimen, Regimen A and Regimen B, Groups I-III (FIG. 10A)): comparable for all three Regimens
- Cmax vs RLD Regimen ([3]; Regimen B, Group III vs Group I (FIG. 10A)): comparable to that of RLD Regimen
- Cmax vs RLD Regimen [3, 5]: comparable to that of RLD Regimen
- time to Cmax vs RLD Regimen [3, 5]: reached Cmax earlier
- trough (day 28) vs RLD Regimen [3, 5]: comparable to the same-day concentration of RLD Regimen and higher than the trough of the RLD Regimen
- solubility in aqueous media [4]: practically insoluble
